Laboratory results taken from US10597388B2, “Pyridazinone herbicides” (FMC CORPORATION, priority 2014, dated 2020).

How the values were obtained:
Assay type in all cases: in vivo
[1] = system: blackgrass (Alopecurus myosuroides); experiment: Test A greenhouse herbicide test, postemergence
Method in brief: (§1)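 Pot-grown plants (loam soil/sand blend), 2–10 cm tall at the one- to two-leaf stage, received postemergence sprays of formulated test chemical. After about 10 d in the greenhouse, injury was rated visually against untreated controls on a 0 (no effect) to 100 (complete control) scale.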

[2] = system: galium (catchweed bedstraw, Galium aparine); experiment: Test A greenhouse herbicide test, postemergence
Method in brief: as §1

[3] = system: barnyardgrass (Echinochloa crus-galli); experiment: Test C greenhouse herbicide test, pre- and postemergence
Method in brief: (§2)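 Seeds sown in loam–sand blend treated preemergence; plants in peat-based medium sprayed postemergence at 2–18 cm (1- to 4-leaf stage); chemicals in non-phytotoxic solvent with surfactant. Greenhouse 13–15 d, then visual rating versus controls on 0–100 scale (0 no effect, 100 complete control).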

[4] = system: blackgrass (Alopecurus myosuroides); experiment: as above
Method in brief: as §2

[5] = system: galium (catchweed bedstraw, Galium aparine); experiment: as above
Method in brief: as §2

[6] = system: nutsedge, yellow (yellow nutsedge, Cyperus esculentus); experiment: as above
Method in brief: as §2

[7] = system: pigweed (Amaranthus retroflexus); experiment: as above
Method in brief: as §2

[8] = system: ragweed (common ragweed, Ambrosia elatior); experiment: as above
Method in brief: as §2

[9] = system: ryegrass, Italian (Italian ryegrass, Lolium multiflorum); experiment: as above
Method in brief: as §2

soybean (Glycine max) = experiment: as above
Method in brief: as §2

[10] = system: velvetleaf (Abutilon theophrasti); experiment: as above
Method in brief: as §2

[11] = system: chickweed (common chickweed, Stellaria media); experiment: Test C greenhouse herbicide test, postemergence
Method in brief: (§3)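 Visual injury scores (0–100, where 100 means complete control) were assigned 13 to 15 d after postemergence application, by comparison with untreated plants. Treated seedlings stood 2 to 18 cm tall, at the 1- to 4-leaf stage.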

kochia (Kochia scoparia) = experiment: Test C greenhouse herbicide test, postemergence
Method in brief: as §3

[12] = system: oat, wild (wild oat, Avena fatua); experiment: Test C greenhouse herbicide test, postemergence
Method in brief: as §3

[13] = 125 g ai/ha, 0 to 100 scale where 0 is no effect and 100 is complete control
[14] = 500 g ai/ha, 0 to 100 scale, 0 is no effect, 100 is complete control
[15] = Postemergence, 31 g ai/ha, 0 to 100 scale (0 no effect, 100 complete control)
[16] = Postemergence, 125 g ai/ha, scale 0 to 100, 0 is no effect, 100 is complete control
[17] = Postemergence, 250 g ai/ha, scale 0 to 100, 0 no effect, 100 complete control, 13 to 15 d
[18] = Preemergence, 31 g ai/ha, scale 0 to 100, 0 is no effect, 100 is complete control
[19] = Preemergence, 62 g ai/ha, scale 0 to 100, 0 is no effect, 100 is complete control
[20] = Preemergence, 125 g ai/ha, scale 0 to 100, 0 is no effect, 100 is complete control
[21] = Preemergence, 250 g ai/ha, scale 0 to 100, 0 no effect, 100 complete control
[22] = postemergence, 62 g ai/ha, scale 0 to 100, 0 no effect, 100 complete control

Cc1nn(C)c(=O)c(-c2ccc(Br)c3ccccc23)c1O [Compound 75]
Plant response rating, Blackgrass [1, 13]: 50
Blackgrass plant response rating [1, 14]: 70
Plant response rating, Galium [2, 13]: 90
Galium plant response rating [2, 14]: 100
Barnyardgrass plant response rating [3, 15]: 25
Plant response rating, Barnyardgrass [3, 16]: 15
Plant response rating, Barnyardgrass [3, 17]: 20
Plant response rating, Barnyardgrass [3, 18]: 5
Plant response rating, Barnyardgrass [3, 19]: 25
Plant response rating, Barnyardgrass [3, 20]: 50
Barnyardgrass plant response rating [3, 21]: 85
Barnyardgrass plant response rating [3, 22]: 25
Blackgrass plant response rating [4, 15]: 5
Plant response rating, Blackgrass [4, 16]: 20
Plant response rating, Blackgrass [4, 17]: 35
Plant response rating, Blackgrass [4, 18]: 20
Plant response rating, Blackgrass [4, 19]: 30
Plant response rating, Blackgrass [4, 20]: 30
Blackgrass plant response rating [4, 21]: 30
Blackgrass plant response rating [4, 22]: 5
Galium plant response rating [5, 15]: 90
Plant response rating, Galium [5, 16]: 90
Plant response rating, Galium [5, 17]: 90
Plant response rating, Galium [5, 18]: 90
Plant response rating, Galium [5, 19]: 90
Plant response rating, Galium [5, 20]: 90
Galium plant response rating [5, 21]: 98
Galium plant response rating [5, 22]: 90
Nutsedge, Yellow plant response rating [6, 15]: 25
Plant response rating, Nutsedge, Yellow [6, 16]: 50
Plant response rating, Nutsedge, Yellow [6, 17]: 70
Plant response rating, Nutsedge, Yellow [6, 18]: 15
Plant response rating, Nutsedge, Yellow [6, 19]: 40
Plant response rating, Nutsedge, Yellow [6, 20]: 65
Nutsedge, Yellow plant response rating [6, 21]: 75
Nutsedge, Yellow plant response rating [6, 22]: 20
Pigweed plant response rating [7, 15]: 85
Plant response rating, Pigweed [7, 16]: 100
Plant response rating, Pigweed [7, 17]: 98
Plant response rating, Pigweed [7, 18]: 85
Plant response rating, Pigweed [7, 19]: 100
Plant response rating, Pigweed [7, 20]: 100
Pigweed plant response rating [7, 21]: 100
Pigweed plant response rating [7, 22]: 95
Ragweed plant response rating [8, 15]: 95
Plant response rating, Ragweed [8, 16]: 100
Plant response rating, Ragweed [8, 17]: 100
Plant response rating, Ragweed [8, 18]: 80
Plant response rating, Ragweed [8, 19]: 85
Plant response rating, Ragweed [8, 20]: 90
Ragweed plant response rating [8, 21]: 100
Ragweed plant response rating [8, 22]: 85
Ryegrass, Italian plant response rating [9, 15]: 80
Plant response rating, Ryegrass, Italian [9, 16]: 85
Plant response rating, Ryegrass, Italian [9, 17]: 85
Plant response rating, Ryegrass, Italian [9, 18]: 90
Plant response rating, Ryegrass, Italian [9, 19]: 90
Plant response rating, Ryegrass, Italian [9, 20]: 90
Ryegrass, Italian plant response rating [9, 21]: 90
Ryegrass, Italian plant response rating [9, 22]: 80
Soybean plant response rating (soybean (Glycine max); [15]): 20
Plant response rating, Soybean (soybean (Glycine max); [16]): 35
Plant response rating, Soybean (soybean (Glycine max); [17]): 10
Plant response rating, Soybean (soybean (Glycine max); [18]): 0
Plant response rating, Soybean (soybean (Glycine max); [19]): 20
Plant response rating, Soybean (soybean (Glycine max); [20]): 45
Soybean plant response rating (soybean (Glycine max); [21]): 55
Soybean plant response rating (soybean (Glycine max); [22]): 35
Velvetleaf plant response rating [10, 15]: 70
Plant response rating, Velvetleaf [10, 16]: 85
Plant response rating, Velvetleaf [10, 17]: 85
Plant response rating, Velvetleaf [10, 18]: 35
Plant response rating, Velvetleaf [10, 19]: 85
Plant response rating, Velvetleaf [10, 20]: 90
Velvetleaf plant response rating [10, 21]: 98
Velvetleaf plant response rating [10, 22]: 50
Chickweed plant response rating [11, 15]: 95
Plant response rating, Chickweed [11, 16]: 95
Plant response rating, Chickweed [11, 17]: 95
Chickweed plant response rating [11, 22]: 90
Kochia plant response rating (kochia (Kochia scoparia); [15]): 90
Plant response rating, Kochia (kochia (Kochia scoparia); [16]): 95
Plant response rating, Kochia (kochia (Kochia scoparia); [17]): 95
Kochia plant response rating (kochia (Kochia scoparia); [22]): 85
Oat, Wild plant response rating [12, 15]: 40
Plant response rating, Oat, Wild [12, 16]: 40
Plant response rating, Oat, Wild [12, 17]: 35
Oat, Wild plant response rating [12, 22]: 35
